The values that follow come from patent US20220389500A1, “PURIFYING AND POLYMERIZING 3'-BLOCKED NUCLEOTIDES” (ILLUMINA, INC., priority 2021, published 2022).

Data set [1] is described as follows: Concentrations of byproducts diphosphate and tetraphosphate in nucleotide solutions vs HPBCD, magnesium ions and nucleotides (FIG. 15). It is filed as physicochemical. Conditions: solutions with buffer, polymerase and oligonucleotide template. The source says:
A precipitate was formed and a color change of solution was observed when nucleotides (3′-blocked and 3′-OH), which were coupled to different fluorescent dyes, were mixed with polishing polymerase, a template, magnesium ions (from magnesium acetate), and a buffer. The change in color was interpreted as the solution having a reduced concentration of fluorescent dyes, and the precipitate was interpreted as being an aggregation of the nucleotides coupled to the fluorescent dyes. […] The plots described below with reference to FIGS. 12-15 were obtained by using the measured normalized intensities, together with the corresponding concentrations of different solution components, in a model that interpolated the behavior of the solution system for additional concentrations. […]
FIG. 15 includes plots of the concentrations of different byproducts as a function of concentrations of the modified β-cyclodextrin HPBCD, of magnesium ions, and of the fluorescently labeled nucleotides FFA-1, FFA-3, and FFC-1. More specifically, the respective concentrations of diphosphate and tetraphosphate in the solutions were measured and used in the above-noted models. […]

Data set [2] in a line: Observation of precipitate and color change of dye-coupled nucleotide solutions with polishing polymerase, template, magnesium ions and buffer. Type of data set: physicochemical. As to conditions: HPBCD added to dye-coupled nucleotides, magnesium ions (magnesium acetate) and buffer. The source says: A precipitate was formed and a color change of solution was observed when nucleotides (3′-blocked and 3′-OH), which were coupled to different fluorescent dyes, were mixed with polishing polymerase, a template, magnesium ions (from magnesium acetate), and a buffer. The change in color was interpreted as the solution having a reduced concentration of fluorescent dyes, and the precipitate was interpreted as being an aggregation of the nucleotides coupled to the fluorescent dyes. […] From this it was inferred that modified α-cyclodextrins (such as (2-hydroxypropyl)-α-cyclodextrin), other modified β-cyclodextrins (such as […], HEBCD), or modified γ-cyclodextrins (such as (2-hydroxypropyl)-γ-cyclodextrin) may promote solubility of the nucleotides and/or of the fluorescent dyes. A series of solutions were prepared in which the concentration of magnesium ions was varied between 0 and 6.3 mM, the concentration of HPBCD was varied between 0% and 10% (w/v), and the concentration of nucleotides including fluorescent dyes was varied between 0.5 and 1.5 mM. […] The plots described below with reference to FIGS. 12-15 were obtained by using the measured normalized intensities, together with the corresponding concentrations of different solution components, in a model that interpolated the behavior of the solution system for additional concentrations. […]

Consider `CC(O)COC[C@H]1O[C@@H]2O[C@H]3[C@H](O)[C@@H](O)[C@@H](O[C@H]4[C@H](O)[C@@H](O)[C@@H](O[C@H]5[C@H](O)[C@@H](O)[C@@H](O[C@H]6[C@H](O)[C@@H](O)[C@@H](O[C@H]7[C@H](O)[C@@H](O)[C@@H](O[C@H]8[C@H](O)[C@@H](O)[C@@H](O[C@H]1[C@H](O)[C@H]2O)O[C@@H]8COCC(C)O)O[C@@H]7COCC(C)O)O[C@@H]6COCC(C)O)O[C@@H]5COCC(C)O)O[C@@H]4COCC(C)O)O[C@@H]3COCC(C)O` (stereo partly drawn) [HPBCD, (2-hydroxypropyl)-β-cyclodextrin], for which the “effect on formation of byproducts (diphosphate, tetraphosphate)” value in data set [1] is on record as “suppressed the formation of different byproducts”. Also, in data set [2], the “precipitate formation and color change of solution” value was “did not form a precipitate or change color”.
